The numbers were not newly measured in paper PMC6444188, “Systemic Administration of Avian Defensin 7: Distribution, Cellular Target, and Antibacterial Potential in Mice” (Frontiers in Microbiology, 2019), which cites them from elsewhere.

Ends that are not written are not given here.

The subject of one data set is S. Typhimurium. From the text:
The ability of AvBD7 to reduce bacterial load in the liver of Salmonella-infected animals is in agreement with the distribution of this defensin to this organ. Indeed, even if most part of the fluorescence-labeled AvBD7 injected in the peritoneal cavity of mice reached bloodstream, kidneys and was eliminated through the urinary tract, a substantial amount was found in the liver, the second most fluorescent organ after the kidneys.

The next data set relates to S. Typhi. The conditions noted are these: intraperitoneal mouse model of salmonellosis; ref Maiti et al., 2014. From the text:
There is a lack of knowledge on the ability of defensins to exert antimicrobial activity toward MDR bacterial strains. […] There are several mouse salmonellosis models available to assess vaccine and antimicrobials efficacy ([Higginson et al., 2016]). These range from models of colonization or lethality, through infection by the oral, ...

The subject of another data set is proteases. From the text: AvBDs are characterized by cationicity and structure with the typical beta-sheet stabilized by three disulfide bonds between six highly conserved cysteines while primary sequences are diverse ([Derache et al., 2012]).
[1] abbreviates: 30 mg/kg i.p., S. Typhimurium-infected mice, ref Benincasa et al., 2010.

As to “Bac7: proline-rich antimicrobial peptide (RRIRPRPPRLPRPRPRPLPFPRPGPRPIPRPLPFP; Bac7; UniProt P19661 131-165, looked up, fragment)”, in the data set on S. Typhimurium (setting [1]), the “effect on liver bacterial load” value is “without significant reduction of the liver bacterial load” and the “effect on mice survival” value is given as “beneficial effect on mice survival”. The “time to elimination following i.p. injection” value in the data set on S. Typhimurium (mouse, in vivo, ip) was at most 5 h.
“HBD1: human beta-defensin (DHYNCVSSGGQCLYSACPIFTKIQGTCYRGKAKCCK; ends and bridges not checked; cysteine pairing not given here; UniProt P60022 33-68, looked up)”: the “effect on disease and bacterial load” value with S. Typhi was “efficient in attenuating the disease and the bacterial load”.
As to “HBD3: human beta-defensin (GIINTLQKYYCRVRGGRCAVLSCLPKEEQIGKCSTRGRKCCRRKK; ends and bridges not checked; cysteine pairing not given here; UniProt P81534 23-67, looked up)”, the stability toward proteases entry in the data set with proteases is listed as “can be inactivated by proteases”.
